Data as given in the NIST ThermoML archive (doi:10.1021/je0496600).
Numbers after ± are expanded uncertainties.

Experiment: mn = molality of the nth substance listed, in mol/kg
Conditions: 101.3 kPa, Liquid; for speed of sound: Sing-around technique in a fixed-path interferometer

O=C([O-])CCC(=O)[O-].[Na+].[Na+] [disodium succinate] + O
Conditions	mass density, 298.15 K [kg/m3]	mass density, 308.15 K [kg/m3]	mass density, 318.15 K [kg/m3]	speed of sound, 298.15 K [m/s]	speed of sound, 308.15 K [m/s]	speed of sound, 318.15 K [m/s]
m1 = 0.0188	999.052 ± 0.34	996.011 ± 0.37	992.179 ± 0.37	1500.2 ± 0.98	1523.2 ± 0.99	1539.9 ± 0.99
m1 = 0.0239	999.583 ± 0.34	996.544 ± 0.36	992.703 ± 0.37	1501.1 ± 0.98	1524.1 ± 0.99	1540.6 ± 0.99
m1 = 0.0336	1000.61 ± 0.34	997.55 ± 0.35	993.703 ± 0.36	1502.7 ± 0.98	1525.6 ± 0.99	1542.1 ± 0.99
m1 = 0.0373	1001 ± 0.34	997.934 ± 0.35	994.083 ± 0.36	1503.4 ± 0.98	1526.2 ± 0.99	1542.7 ± 0.99
m1 = 0.0452	1001.82 ± 0.35	998.747 ± 0.34	994.887 ± 0.36	1504.9 ± 0.98	1527.5 ± 0.99	1544 ± 0.99
m1 = 0.0489	1002.2 ± 0.35	999.13 ± 0.35	995.266 ± 0.36	1505.4 ± 0.99	1528 ± 0.99	1544.6 ± 0.99
m1 = 0.0546	1002.79 ± 0.35	999.711 ± 0.34	995.841 ± 0.36	1506.3 ± 0.99	1528.9 ± 0.99	1545.3 ± 0.99
m1 = 0.0593	1003.28 ± 0.35	1000.19 ± 0.34	996.315 ± 0.35	1507.1 ± 0.99	1529.7 ± 0.99	1546.6 ± 0.99
m1 = 0.068	1004.18 ± 0.36	1001.08 ± 0.34	997.197 ± 0.35	1509 ± 0.99	1531.7 ± 0.99	1547.5 ± 0.99
m1 = 0.0763	1005.05 ± 0.36	1001.94 ± 0.35	998.046 ± 0.35	1510.5 ± 0.99	1532.4 ± 0.99	1548.5 ± 0.99
m1 = 0.0864	1006.09 ± 0.36	1002.96 ± 0.35	999.064 ± 0.34	1511.7 ± 0.99	1533.9 ± 0.99	1549.9 ± 0.99
m1 = 0.0935	1006.82 ± 0.37	1003.69 ± 0.35	999.785 ± 0.34	1512.8 ± 0.99	1535.1 ± 0.99	1551.2 ± 1
m1 = 0.1221	1009.74 ± 0.38	1006.56 ± 0.36	1002.63 ± 0.35	1517.5 ± 0.99	1539.5 ± 0.99	1555.2 ± 1
m1 = 0.2589	1023.44 ± 0.43	1020.07 ± 0.42	1016.03 ± 0.4	1539.8 ± 1	1560.3 ± 1	1575.1 ± 1
m1 = 0.3292	1030.32 ± 0.46	1026.85 ± 0.45	1022.73 ± 0.43	1551 ± 1	1570.8 ± 1	1585.2 ± 1
m1 = 0.4019	1037.3 ± 0.49	1033.75 ± 0.47	1029.56 ± 0.46	1562.4 ± 1	1581.6 ± 1	1595.8 ± 1
m1 = 0.4364	1040.57 ± 0.5	1036.98 ± 0.49	1032.77 ± 0.47	1567.8 ± 1	1586.6 ± 1	1600.7 ± 1
m1 = 0.5252	1048.89 ± 0.53	1045.2 ± 0.52	1040.92 ± 0.5	1582 ± 1	1599.5 ± 1	1612 ± 1
m1 = 0.6535	1060.59 ± 0.58	1056.74 ± 0.56	1052.37 ± 0.55	1601.2 ± 1	1617.8 ± 1	1629.2 ± 1
m1 = 0.7422	1068.47 ± 0.61	1064.55 ± 0.6	1060.13 ± 0.58	1615.1 ± 1	1630.5 ± 1	1641 ± 1.1
m1 = 0.9099	1083.03 ± 0.67	1078.94 ± 0.66	1074.41 ± 0.64	1639.8 ± 1.1	1653.3 ± 1.1	1662.7 ± 1.1
m1 = 1.168	1104.44 ± 0.76	1100.13 ± 0.74	1095.45 ± 0.72	1675.7 ± 1.1	1687.5 ± 1.1	1694.9 ± 1.1
m1 = 1.43	1125.04 ± 0.84	1120.37 ± 0.82	1115.74 ± 0.81	1711.2 ± 1.1	1720.9 ± 1.1	1726.2 ± 1.1
m1 = 1.748	1148.68 ± 0.94	1143.92 ± 0.92	1138.95 ± 0.9	1752.4 ± 1.1	1759 ± 1.1	1762.5 ± 1.1

O=C[O-].[Na+] [sodium methanoate] + O
Conditions	mass density, 298.15 K [kg/m3]	mass density, 308.15 K [kg/m3]	mass density, 318.15 K [kg/m3]	speed of sound, 298.15 K [m/s]	speed of sound, 308.15 K [m/s]	speed of sound, 318.15 K [m/s]
m1 = 0.0263	998.164 ± 0.33	995.129 ± 0.35	991.308 ± 0.36	1498.6 ± 0.98	1521.7 ± 0.99	1538.3 ± 0.99
m1 = 0.0331	998.451 ± 0.33	995.412 ± 0.35	991.587 ± 0.36	1499.1 ± 0.98	1522.1 ± 0.99	1538.8 ± 0.99
m1 = 0.0437	998.896 ± 0.33	995.851 ± 0.34	992.021 ± 0.36	1499.7 ± 0.98	1522.7 ± 0.99	1539.3 ± 0.99
m1 = 0.0497	999.147 ± 0.33	996.099 ± 0.34	992.265 ± 0.36	1500.1 ± 0.98	1523.1 ± 0.99	1539.6 ± 0.99
m1 = 0.057	999.452 ± 0.33	996.397 ± 0.34	992.559 ± 0.36	1500.6 ± 0.98	1523.5 ± 0.99	1540 ± 0.99
m1 = 0.0682	999.921 ± 0.33	996.863 ± 0.34	993.016 ± 0.35	1501.2 ± 0.98	1524.2 ± 0.99	1540.6 ± 0.99
m1 = 0.0747	1000.2 ± 0.33	997.131 ± 0.34	993.282 ± 0.35	1501.6 ± 0.98	1524.5 ± 0.99	1541 ± 0.99
m1 = 0.0811	1000.46 ± 0.33	997.398 ± 0.34	993.545 ± 0.35	1502.1 ± 0.98	1524.9 ± 0.99	1541.3 ± 0.99
m1 = 0.0909	1000.88 ± 0.33	997.799 ± 0.34	993.945 ± 0.35	1502.7 ± 0.98	1525.5 ± 0.99	1541.9 ± 0.99
m1 = 0.0975	1001.15 ± 0.33	998.074 ± 0.34	994.215 ± 0.35	1503 ± 0.98	1525.9 ± 0.99	1542.4 ± 0.99
m1 = 0.1428	1003.03 ± 0.34	999.916 ± 0.33	996.044 ± 0.34	1505.9 ± 0.99	1528.5 ± 0.99	1544.5 ± 0.99
m1 = 0.2955	1009.33 ± 0.36	1006.11 ± 0.35	1002.18 ± 0.34	1515.1 ± 0.99	1536.9 ± 0.99	1552.5 ± 1
m1 = 0.4697	1016.34 ± 0.39	1012.98 ± 0.38	1008.95 ± 0.36	1525.2 ± 0.99	1546.2 ± 1	1561.2 ± 1
m1 = 0.6887	1024.99 ± 0.43	1021.49 ± 0.41	1017.38 ± 0.4	1537.7 ± 1	1557.7 ± 1	1572.6 ± 1
m1 = 0.8366	1030.69 ± 0.45	1027.11 ± 0.44	1022.93 ± 0.42	1546 ± 1	1565.3 ± 1	1579 ± 1
m1 = 0.9653	1035.61 ± 0.47	1031.93 ± 0.46	1027.66 ± 0.44	1553.1 ± 1	1571.8 ± 1	1584.9 ± 1
m1 = 1.139	1042.15 ± 0.5	1038.38 ± 0.48	1034.04 ± 0.47	1562.4 ± 1	1580.4 ± 1	1593.2 ± 1
m1 = 1.233	1045.63 ± 0.51	1041.81 ± 0.5	1037.43 ± 0.48	1567.5 ± 1	1585 ± 1	1597.3 ± 1
m1 = 1.496	1055.23 ± 0.55	1051.27 ± 0.54	1046.79 ± 0.52	1581.2 ± 1	1597.5 ± 1	1609.2 ± 1
m1 = 2.188	1079.46 ± 0.65	1075.15 ± 0.64	1070.43 ± 0.62	1615.3 ± 1	1628.8 ± 1	1638.3 ± 1.1
m1 = 2.783	1099.17 ± 0.73	1094.61 ± 0.72	1089.57 ± 0.7	1642.8 ± 1.1	1653.9 ± 1.1	1661.4 ± 1.1
m1 = 3.458	1120.32 ± 0.82	1115.48 ± 0.8	1110.11 ± 0.78	1671.7 ± 1.1	1680.4 ± 1.1	1685.7 ± 1.1
m1 = 4.201	1142.29 ± 0.91	1137.22 ± 0.89	1131.78 ± 0.87	1701.1 ± 1.1	1707.2 ± 1.1	1709.9 ± 1.1
m1 = 4.966	1163.55 ± 1	1158.26 ± 0.98	1152.83 ± 0.96	1729.1 ± 1.1	1732.7 ± 1.1	1733.4 ± 1.1
m1 = 6.561	1204.09 ± 1.2	1198.4 ± 1.1	1192.37 ± 1.1	1779.4 ± 1.2	1778.7 ± 1.2	1775.7 ± 1.2
m1 = 7.737	1230.99 ± 1.3	1225.05 ± 1.3	1218.87 ± 1.2	1811.1 ± 1.2	1807.6 ± 1.2	1802 ± 1.2
m1 = 8.551	1248.27 ± 1.4	1242.15 ± 1.3	1235.77 ± 1.3	1830.5 ± 1.2	1825.3 ± 1.2	1818.3 ± 1.2
m1 = 10.05	1277.62 ± 1.5	1271.22 ± 1.4	1264.6 ± 1.4	1862.1 ± 1.2	1854.1 ± 1.2	1844.6 ± 1.2
